# What was measured:
# hTRPM8 = biological target: T1, hTRPM8 (Homo sapiens, UniProt Q7Z2W7); experiment: Assay on TRPM8 modulators: calcium imaging (Fluo-4, Flexstation) in HEK293 cell line stably expressing hTRPM8; type: cell-based; conditions: HEK293 cells stably expressing hTRPM8; calcium influx, Fluo-4, Flexstation 3; sigmoidal dose-response fit
# T1 construct: expressed in transfected cells
# Summary of the method: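 HEK293 cells stably expressing hTRPM8 were loaded with Fluo-4 AM plus probenecid and kept in HEPES buffer, pH 7.4. Calcium influx to serially diluted compounds was recorded for 120 s. Maximal activation was referenced to solvent control and 31.6 μM menthol, with EC values from sigmoidal dose-response fits.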
# [1] = system: trained group of panelists; experiment: Sensory studies in aqueous solution (trained panel, mouth swill); type: in vivo, human; conditions: 10 ppm in aqueous solution; for Time of max. cooling / Max. cooling: 20 mL swilled in the mouth for 60 seconds; for Max. cooling / Cooling after 1 h: panel-averaged cooling score, scale 0 to 10; for Cooling after 1 h: 1 h after swilling
# Procedure: The compounds as listed below in Table 2 were dissolved at a concentration of 1 wt-% in propylene glycol. These solutions were then dispensed in appropriate quantities into deionized water containing 0.5 wt-% Poloxamer 407 (which is a hydrophilic non-ionic surfactant, e.g., commercially available from SigmaAldrich) and 0.25 wt-% Cremaphor® RH40 (obtained from BASF) as solubilizer, to obtain the desired final concentration of 10 ppm (parts per million) of the respective compound.
# A trained group of panelists evaluated the aqueous solutions containing test compound by swilling 20 mL of the solution in the mouth for 60 seconds, followed by spitting, without rinsing the mouth afterwards for the duration of the evaluation. Panelists evaluated and recorded the cooling performance as well as other sensorial and organoleptic attributes at different timepoints over a period of two hours. Cooling performance was rated on a scale from 0 to 10 with 0 being no effect and 10 being freezing. Scores were averaged for all panelists and the cooling intensity qualified as “none” (score of 0), “low” (score above 0, up to 1), “medium” (score above 1, up to 4) “strong” (score above 4, up to 8) and “freezing” (score above 8), which are provided in Table 2.
# [2] = system: trained group of panelists; experiment: Sensory studies in model dentifrice (trained panel, tooth brushing); type: in vivo, human; conditions: 40 ppm in model unflavored dentifrice; for Cooling after 1 h: 1 h after brushing; for Cooling after 1 h / Max. cooling: panel-averaged score 0 to 10; for Time of max. cooling / Max. cooling: brushing with 1 g for 60 seconds; for Max. cooling: stock in propylene glycol (A) or benzyl alcohol (B)
# Procedure: The compounds listed in Table 3 were dissolved at a concentration of 1 wt-% in propylene glycol^A or benzyl alcohol^B (respective solvents indicated in Table 3). These solutions were then dispersed in appropriate quantities to obtain the desired final concentration of 40 ppm (parts per million) of the test compound into a model, unflavored dentifrice, the formula of which is given below (ingredients obtained from the suppliers respectively indicated in parenthesis).
# A trained group of panelists evaluated the dentifrice containing a compound of formula (I), by brushing their teeth with 1 g of the dentifrice using a toothbrush for 60 seconds, followed by spitting, without rinsing the mouth afterwards for the duration of the evaluation. Panelists evaluated and recorded the cooling performance as well as other sensorial and organoleptic attributes at different timepoints over a period of two hours. Cooling performance was rated on a scale from 0 to 10 with 0 being no effect and 10 being freezing. Scores were averaged for all panelists and the cooling intensity qualified as “none” (score of 0), “low” (score above 0, up to 1), “medium” (score above 1, up to 4) “strong” (score above 4, up to 8) and “freezing” (score above 8), which are summarized below in Table 3.
# T1 sequence (Q7Z2W7 whole entry): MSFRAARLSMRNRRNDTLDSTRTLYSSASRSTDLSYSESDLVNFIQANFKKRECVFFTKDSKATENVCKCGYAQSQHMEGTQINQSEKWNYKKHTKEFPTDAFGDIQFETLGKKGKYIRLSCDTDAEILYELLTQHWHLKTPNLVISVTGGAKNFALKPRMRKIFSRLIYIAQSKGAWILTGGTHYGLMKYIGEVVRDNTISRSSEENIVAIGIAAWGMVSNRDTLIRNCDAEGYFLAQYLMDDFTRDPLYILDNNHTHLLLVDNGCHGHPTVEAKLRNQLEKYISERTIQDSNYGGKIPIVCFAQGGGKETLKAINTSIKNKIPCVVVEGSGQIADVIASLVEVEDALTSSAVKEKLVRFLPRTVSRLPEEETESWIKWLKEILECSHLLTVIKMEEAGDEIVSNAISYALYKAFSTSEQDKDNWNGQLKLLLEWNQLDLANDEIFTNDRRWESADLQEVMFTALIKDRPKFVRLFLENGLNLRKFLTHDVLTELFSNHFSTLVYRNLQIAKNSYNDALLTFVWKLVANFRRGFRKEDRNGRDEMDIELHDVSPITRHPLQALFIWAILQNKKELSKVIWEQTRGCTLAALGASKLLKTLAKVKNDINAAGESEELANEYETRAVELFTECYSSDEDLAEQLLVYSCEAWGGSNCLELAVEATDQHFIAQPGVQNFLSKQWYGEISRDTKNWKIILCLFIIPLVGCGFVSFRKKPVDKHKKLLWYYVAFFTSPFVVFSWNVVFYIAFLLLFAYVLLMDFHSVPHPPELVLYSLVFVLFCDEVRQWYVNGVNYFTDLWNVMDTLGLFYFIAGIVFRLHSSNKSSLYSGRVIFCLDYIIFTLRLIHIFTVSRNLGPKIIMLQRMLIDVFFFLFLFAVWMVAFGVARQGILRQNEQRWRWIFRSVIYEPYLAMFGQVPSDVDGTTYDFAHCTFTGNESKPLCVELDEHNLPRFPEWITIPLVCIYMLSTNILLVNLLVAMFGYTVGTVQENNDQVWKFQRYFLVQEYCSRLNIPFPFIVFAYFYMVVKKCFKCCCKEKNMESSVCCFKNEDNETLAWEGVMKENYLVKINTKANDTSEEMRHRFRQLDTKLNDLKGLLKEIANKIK
Structure (SMILES),EC50 (hTRPM8),Time of max. cooling [1],Max. cooling [1],Cooling after 1 h [1],Cooling after 1 h [2],Time of max. cooling [2],Max. cooling [2]
"CC[C@H](C)C(=O)N1CCCCC1c1ncc(-c2ccc(C)cc2)[nH]1 (stereo partly drawn) [Compound 166, (2S)-2-methyl-1-(2-(5-(p-tolyl)-1H-imidazol-2-yl)piperidin-1-yl)butan-1-one]",< 50 nM,20 min,S (S = Strong),M (M = medium),M (M = medium),10 min,S (S = Strong)
"CSC(C)C(=O)N1CCCCC1c1ncc(-c2ccc(C)cc2)[nH]1 (stereo not shown) [Compound 130, 2-(methylthio)-1-(2-(5-(p-toly)-1H-imidazol-2-yl)piperidin-1-yl)propan-1-one]",< 50 nM,20 min,S (S = Strong),M (M = medium),M (M = medium),20 min,S (S = Strong)
"C=CC(C)C(=O)N1CCCCC1c1ncc(-c2ccc(C)cc2)[nH]1 (stereo not shown) [Compound 163, 2-methyl-1-(2-(5-(p-tolyl)-1H-imidazol-2-yl)piperidin-1-yl)but-3-en-1-one]",< 50 nM,10 min,S (S = Strong),M (M = medium),M (M = medium),5 min,M (M = medium)
"CCC(C)C(=O)N1CCCCC1c1ncc(-c2ccc(C)cc2)[nH]1 (stereo not shown) [Compound 164, 2-methyl-1-(2-(5-(p-tolyl)-1H-imidazol-2-yl)piperidin-1-yl)butan-1-one]",< 50 nM,10 min,S (S = Strong),M (M = medium),M (M = medium),10 min,S (S = Strong)
"CCSC(C)C(=O)N1CCCCC1c1ncc(-c2ccc(C)cc2)[nH]1 (stereo not shown) [Compound 95, 2-(ethylthio)-1-(2-(5-(p-toly)-1H-imidazol-2-yl)piperidin-1-yl)propan-1-one]",< 50 nM,10 min,M (M = medium),M (M = medium),L (L = Low),5 min,M (M = medium)
"CSC(C)C(=O)N1CCCCC1c1ncc(-c2ccc(C(F)(F)F)cc2)[nH]1 (stereo not shown) [Compound 124, 2-(methylthio)-1-(2-(5-(4-(trifluoromethyl)phenyl)-1H-imidazol-2-yl)piperidin-1-yl)propan-1-one]",< 50 nM,20 min,M (M = medium),M (M = medium),M (M = medium),30 min,M (M = medium)
"CS[C@H](C)C(=O)N1CCCC[C@@H]1c1ncc(-c2ccc(C)cc2)[nH]1 [Compound 11, (R)-2-(methylthio)-1-((R)-2-(5-(p-tolyl)-1H-imidazol-2-yl)piperidin-1-yl)propan-1-one]",< 50 nM,10 min,S (S = Strong),M (M = medium),M (M = medium),20 min,S (S = Strong)
